From patent publication US20250188085A1, “COMPOSITIONS AND METHODS FOR INHIBITION OF RAS” (THERAS, INC., priority 2022, published 2025)

Tests used:
[1] = target: T1, Avi-KRAS G12C (1-169) GppNHp/RAF1 RBD-3×FLAG (52-151) (Homo sapiens, UniProt P01116, G12C); assay: Raf1 RBD-KRAS G12C-GppNHp disruption (protein:protein interaction HTRF assay); assay type: biochemical
T1 construct: Avi-KRAS G12C (1-169) GppNHp/RAF1 RBD-3×FLAG (52-151)
In short: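 HTRF measuring disruption of 50 nM Avi-KRAS G12C (1-169) loaded with GppNHp binding RAF1 RBD-3×FLAG (52-151), in pH 7.5 Tris buffer with 5 mM MgCl2, 0.1% BSA, 10% DMSO. KRAS preincubated with compound 1 h, then RBD 1 h, then detection reagents 1 h, all at room temperature. Compound titration 30-0.02 μM; activity expressed as percent of DMSO control.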

[2] = target: T2, GTP-loaded KRAS4b (amino acids 1-169) G12C/C118S protein (Homo sapiens, UniProt P01116, C118S/G12C); assay: Covalent cysteine 12 modification by MALDI-TOF MS, GTP-loaded KRAS G12C; assay type: binding; details: 15 minutes reaction time point
T2 construct: KRAS4b (amino acids 1-169) G12C/C118S protein; made in house
In short: (§1)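 KRAS4b 1-169 G12C/C118S loaded with GDP, GppNHp or GTP was used at 1 μM in 20 mM HEPES, 150 mM NaCl, 1 mM MgCl2, pH 7.3, and incubated with compound (5 mM DMSO stock) at room temperature in the dark. % modification at 15 min is adduct peak height over total protein peak heights by linear-mode MALDI-TOF.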

[3] = target: T3, GDP-loaded KRAS4b (amino acids 1-169) G12C/C118S protein (Homo sapiens, UniProt P01116, C118S/G12C); assay: Covalent cysteine 12 modification by MALDI-TOF MS, GDP-loaded KRAS G12C; assay type: binding; details: 15 minutes reaction time point
T3 construct: KRAS4b (amino acids 1-169) G12C/C118S protein; made in house
In short: as §1

pERK in NCI-H358 cells = assay: Cell-based pERK HTRF assay; details: Homo sapiens, NCI-H358, 0.5 h, 30 min incubation, read-out: pERK in NCI-H358 cell inhibition IC50
In short: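 Cells seeded at 4×10^4/well in RPMI with 10% FBS, then next day treated for 30 min with a 9-point, 3-fold series from 75 μM top concentration at 0.25% DMSO. Lysates were read for pERK by HTRF (d2/Eu cryptate antibodies) after 4–24 h at room temperature, emission at 615 nm.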

[4] = target: T4, GppNHp-loaded KRAS4b (amino acids 1-169) G12C/C118S protein (Homo sapiens, UniProt P01116, C118S/G12C); assay: Covalent cysteine 12 modification by MALDI-TOF MS, GppNHp-loaded KRAS G12C; assay type: binding; details: 15 minutes reaction time point
T4 construct: KRAS4b (amino acids 1-169) G12C/C118S protein; made in house
In short: as §1

Row | SMILES | IC50 [1] | GTP-KRAS G12C percent of modification [2] | GDP-KRAS G12C percent of modification [3] | IC50 (pERK in NCI-H358 cells) | GppNHp-KRAS G12C percent of modification [4]
1 | C=CC(=O)N1CC[C@@H](Oc2nc(OC[C@@]34CCCN3C[C@H](OC)C4)nc3c(F)c(-c4ccc(F)c5sc(N)c(C#N)c45)c(C(F)(F)F)cc23)[C@H]1C [Compound 99] | ≤ 500 nM | B (50≤percent of modification <70%) | B (50≤percent of modification <70%) | ≤ 100 nM | B (50≤percent of modification <70%)
2 | C=CC(=O)N1CC[C@@H](Oc2nc(OCC34CCCN3CCC4)nc3c(F)c(-c4ccc(F)c5sc(N)c(C#N)c45)c(C(F)(F)F)cc23)[C@H]1C [Compound 100] | ≤ 500 nM | C (10%≤modification <50%) | B (50≤percent of modification <70%) | 100 to 1000 nM | C (10%≤modification <50%)
3 | C=CC(=O)N1CC[C@@H](Oc2nc(OC[C@@H]3CCCN3C)nc3c(F)c(-c4ccc(F)c5sc(N)c(C#N)c45)c(C(F)(F)F)cc23)[C@H]1C [Compound 101] | ≤ 500 nM | C (10%≤modification <50%) | A (percent of modification ≥70%) | ≤ 100 nM | B (50≤percent of modification <70%)
4 | C=CC(=O)N1CC[C@@H](Oc2nc(OC[C@@]34CCCN3C[C@H](OC)C4)nc3cc(-c4ccc(F)c5sc(N)c(C#N)c45)c(C(F)(F)F)cc23)[C@H]1C [Compound 102] | ≤ 500 nM | A (percent of modification ≥70%) | A (percent of modification ≥70%) | ≤ 100 nM | A (percent of modification ≥70%)
5 | C=CC(=O)N1CC[C@@H](Oc2nc(OC[C@@]34CCCN3C[C@H](F)C4)nc3cc(-c4ccc(F)c5sc(N)c(C#N)c45)ccc23)[C@H]1C [Compound 103] | ≤ 500 nM | C (10%≤modification <50%) | A (percent of modification ≥70%) | ≤ 100 nM | B (50≤percent of modification <70%)
6 | C=CC(=O)N1CC[C@@H](Oc2nc(OC[C@@]34CCCN3C[C@H](F)C4)nc3c(C#N)c(-c4ccc(F)c5sc(N)c(C#N)c45)ccc23)[C@H]1C [Compound 104] | ≤ 500 nM | C (10%≤modification <50%) | A (percent of modification ≥70%) | 100 to 1000 nM | C (10%≤modification <50%)
7 | C=CC(=O)N1CC[C@@H](Oc2nc(OC[C@@]34CCCN3C[C@H](F)C4)nc3c(Cl)c(-c4ccc(F)c5sc(N)c(C#N)c45)c(C#N)cc23)[C@H]1C [Compound 105] | ≤ 500 nM | B (50≤percent of modification <70%) | B (50≤percent of modification <70%) | ≤ 100 nM | A (percent of modification ≥70%)
8 | C=CC(=O)N1CC[C@@H](Oc2nc(OC[C@@]34CCCN3C[C@H](F)C4)nc3c(Cl)c(-c4ccc(F)c5sc(N)c(C#N)c45)ncc23)[C@H]1C [Compound 106, 4-(4-(((2R,3R)-1-acryloyl-2-methylpyrrolidin-3-yl)oxy)-8-chloro-2-(((2R,7aS)-2-fluorotetrahydro-1H-pyrrolizin-7a (5H)-yl)methoxy)pyrido[4,3-d]pyrimidin-7-yl)-2-amino-7-fluorobenzo[b]thiophene-3-carbonitrile] | ≤ 500 nM | A (percent of modification ≥70%) | A (percent of modification ≥70%) | ≤ 100 nM | A (percent of modification ≥70%)
9 | C=CC(=O)N1CC[C@@H](Oc2nc(OC[C@@]34CCCN3C[C@H](F)C4)nc3cc(-c4ccc(F)c5sc(N)c(C#N)c45)c(C#N)cc23)[C@H]1C [Compound 107] | ≤ 500 nM | C (10%≤modification <50%) | A (percent of modification ≥70%) | ≤ 100 nM | A (percent of modification ≥70%)
10 | C=CC(=O)N1CC[C@@H](Oc2nc(OC[C@@]34CCCN3C[C@H](F)C4)nc3c(F)c(-c4ccc(F)c5sc(N)c(C#N)c45)ccc23)[C@H]1CC [Compound 108] | ≤ 500 nM | C (10%≤modification <50%) | A (percent of modification ≥70%) | ≤ 100 nM | C (10%≤modification <50%)
11 | C=CC(=O)N1CC[C@@H](Oc2nc(OC[C@@]34CCCN3C[C@H](F)C4)nc3c(Cl)c(-c4ccc(F)c5sc(N)c(C#N)c45)ncc23)[C@H]1COC [Compound 110] | ≤ 500 nM | A (percent of modification ≥70%) | A (percent of modification ≥70%) | ≤ 100 nM | A (percent of modification ≥70%)
12 | C=CC(=O)N1CC[C@@H](Oc2nc(OC[C@@]34CCCN3C[C@H](F)C4)nc3c(F)c(-c4ccc(F)c5sc(N)c(C#N)c45)c(Cl)cc23)[C@H]1COC [Compound 111] | 500 to 5000 nM | D (percent of modification <10%) | C (10%≤modification <50%) | ≤ 100 nM | D (percent of modification <10%)
13 | C=CC(=O)N1CC[C@@H](Oc2nc(OC[C@@]34CCCN3C[C@H](F)C4)nc3cc(-c4ccc(F)c5sc(N)c(C#N)c45)c(C#N)cc23)[C@H]1COC [Compound 112] | ≤ 500 nM | C (10%≤modification <50%) | A (percent of modification ≥70%) | ≤ 100 nM | A (percent of modification ≥70%)
14 | C=CC(=O)N1CC[C@@H](Oc2nc(OC[C@@]34CCCN3C[C@H](F)C4)nc3cc(-c4ccc(F)c5sc(N)c(C#N)c45)c(F)cc23)[C@H]1COC [Compound 113] | > 20000 nM | D (percent of modification <10%) | C (10%≤modification <50%) | > 1000 nM | D (percent of modification <10%)
15 | C=CC(=O)N1CC[C@@H](Oc2nc(OC[C@@]34CCCN3C[C@H](F)C4)nc3c(F)c(-c4ccc(F)c5sc(N)c(C#N)c45)c(C(F)(F)F)cc23)[C@H]1CC [Compound 114] | ≤ 500 nM | C (10%≤modification <50%) | C (10%≤modification <50%) | ≤ 100 nM | C (10%≤modification <50%)
16 | C=CC(=O)N1CC[C@@H](Oc2nc(OC[C@@]34CCCN3C[C@H](F)C4)nc3c(F)c(-c4ccc(F)c5sc(N)c(C#N)c45)c(C(F)(F)F)cc23)[C@@H]1CC [Compound 115] | 500 to 5000 nM | D (percent of modification <10%) | C (10%≤modification <50%) | 100 to 1000 nM | D (percent of modification <10%)
17 | C=CC(=O)N1CC[C@@H](Oc2nc(OC[C@@]34CCCN3C[C@H](F)C4)nc3c(F)c(-c4ccc(F)c5sc(N)c(C#N)c45)ccc23)[C@@H]1CC [Compound 116] | > 20000 nM | D (percent of modification <10%) | C (10%≤modification <50%) | > 1000 nM | D (percent of modification <10%)
